{
  "source": "patent US20240000814A1",
  "about": "“TREATING ALCOHOL USE DISORDER USING PSILOCYBIN” (New York University, priority 2022, published 2024)",
  "format_in_all_cases": "in vivo, human",
  "key": {"[1]": {"system": "AUD patients", "assay": "Double-blind randomized trial of psilocybin-assisted treatment of AUD: drinking outcomes by timeline followback", "settings": "for % of Heavy drinking days (PHDD), mean: 32-week double-blind follow-up (weeks 5-36) after first dose, oral psilocybin 25 mg/70 kg then 25-40 mg/70 kg or diphenhydramine 50 mg then 50-100 mg at weeks 4 and 8, with psychotherapy", "procedure": "Design: In this double-blind trial, participants were offered 12 weeks of manualized psychotherapy and were randomly assigned to receive psilocybin vs. diphenhydramine during two day-long medication sessions at week 4 and 8. Outcomes were assessed over the 32-week double-blind period following the first dose of study medication.\nInterventions: Study medications were psilocybin 25 mg/70 kg vs. diphenhydramine 50 mg (first session) and psilocybin 25-40 mg/70 kg vs. diphenhydramine 50-100 mg (second session). Psychotherapy included motivational enhancement therapy and cognitive-behavioral therapy.\nQualifying participants were assessed at screening, baseline (week 0), and weeks 4, 5, 8, 9, 12, 24, and 36. They were randomly assigned in a 1:1 ratio to receive either psilocybin or diphenhydramine, administered in two eight-hour sessions at weeks 4 and 8. All participants who completed the double-blind observation period (weeks 5-36) and still met safety criteria were offered an open-label psilocybin session at week 38, including four additional psychotherapy sessions and assessment for an additional 18 weeks. Participants received up to a total of $560 for completing assessments in the course of the trial, but were not reimbursed for attending the therapy and medication sessions.\nAll participants were offered a total of 12 psychotherapy sessions from a team of two therapists including a licensed psychiatrist: 4 before the first medication session, 4 between the first and second medication sessions, and 4 in the month following the second medication session. The psychotherapy, described in detail in a separate publication,^41 included motivational interviewing and cognitive behavioral therapy for AUD as well as material designed to help the participants to manage and make use of the psychoactive effects of the study medication.\nStudy medication was taken orally in a single opaque capsule of unvarying appearance and weight. Psilocybin doses were weight-based to control for participant body weight, which ranged from 49.0 to 116.1 (mean=78.3, SD=15.6) kg. Doses for the first session were psilocybin 25 mg/70 kg or diphenhydramine 50 mg. Participants received an increased dose in the second session if there were no dose-limiting adverse events and they agreed to the increase. The increased dose of psilocybin was 30 mg/70 kg if the participant's total score on the Pahnke-Richards Mystical Experience Questionnaire (MEQ)^42 was ≥0.6 in the first session (indicating a robust subjective response to the 25 mg/70 kg dose), or 40 mg/70 kg if the MEQ total score in the first session was <0.6. The increased dose of diphenhydramine was 100 mg, regardless of subjective response.\nStudy medication was administered at approximately 9 AM, after which participants were required to stay in the session room with the therapists for at least 8 hours (except for bathroom breaks). During the session, participants were encouraged to lie on a couch wearing eyeshades and headphones providing a standardized playlist of music. Medications were available in the session room to treat hypertension, severe anxiety, or psychotic symptoms.\nThe pre-specified primary drinking outcome was the percentage of heavy drinking days (PH DD) during […], assessed at weeks 8, 12, 24, and 36 using the timeline followback, a reliable and valid calendar-based method which is the gold standard outcome for AUD clinical trials.^43-47 Secondary outcomes included percent drinking days (PDD), average drinks per day (DPD), and dichotomous outcomes: abstinence, lack of heavy drinking days, and reduction in World Health Organization risk level^48 by one, two, or three levels. Hair or fingernail samples were collected at week 24 and assayed for ethylglucuronide (EtG) concentration to confirm self-reported abstinence. The Short Index of Problems (SIP-2R)^49 was used to assess drinking-related problems at baseline and weeks 12, 24, and 36. […]"}, "[2]": {"system": "AUD patients", "assay": "Subjective effects of study medication, Mystical Experience Questionnaire (MEQ)", "procedure": "Subjective effects of psilocybin vs. diphenhydramine were assessed using the States of Consciousness Questionnaire,^42 containing the 43-item Mystical Experience Questionnaire (MEQ), completed immediately after each medication session.\nMEQ scores for the first and second medication sessions were computed and contrasted by group (psilocybin vs. diphenhydramine) using t-tests for independent samples."}, "[3]": {"system": "AUD patients", "assay": "Safety: blood pressure, heart rate and adverse events in the trial", "procedure": "Blood pressure and heart rate were assessed at 30- to 60-minute intervals during the first 6 hours of each medication session. Adverse events were solicited at each post-screening assessment.\nBlood pressure and heart rate treatment contrasts were based on MMRM with fixed, categorical effects of treatment and assessment, a treatment-by-assessment interaction, and a fixed covariate (value of each outcome prior to drug administration). All adverse events occurring after informed consent were MedDRA-coded and tabulated, and prevalence within treatment groups (proportion of participants affected) was compared using Fisher's exact tests."}, "[4]": {"settings": "32-week double-blind follow-up (weeks 5-36)"}, "[5]": {"settings": "32 weeks following the first administration of study medication"}, "[6]": {"settings": "treatment-emergent, within 48 hours of study drug administration"}},
  "data": [
    {"smiles": "CN(C)CCOC(c1ccccc1)c1ccccc1", "note": "[Diphenhydramine, diphenhydramine]", "values": [
      {"measurement": "% of Drinking days (PDD), mean", "setting": "[1]; [4]", "value": 42.83, "unit": "%"},
      {"measurement": "Drinks per day (DPD), mean", "setting": "[1]; [4]", "value": 2.26, "unit": "Drinks per day"},
      {"measurement": "% of Heavy drinking days (PHDD), mean", "setting": "[1]", "value": 23.57, "unit": "%"},
      {"measurement": "% of Heavy drinking days (PHDD), mean", "setting": "[1]; listed as diphenhydramine", "value": 23.6, "unit": "%"},
      {"measurement": "Abstinence, % of participants", "setting": "[1]; Weeks 5-36", "value": "(8.9) %"},
      {"measurement": "Abstinence, No. of participants", "setting": "[1]; Weeks 5-36", "value": 4},
      {"measurement": "No heavy drinking, % of participants", "setting": "[1]; Weeks 5-36", "value": "(11.1) %"},
      {"measurement": "No heavy drinking, No. of participants", "setting": "[1]; Weeks 5-36", "value": 5},
      {"measurement": "WHO risk level Decrease 1, % of participants", "setting": "[1]; Weeks 5-36", "value": "(71.1) %"},
      {"measurement": "WHO risk level Decrease 2, % of participants", "setting": "[1]; Weeks 5-36", "value": "(40.0) %"},
      {"measurement": "WHO risk level Decrease 2, No. of participants", "setting": "[1]; Weeks 5-36", "value": 18},
      {"measurement": "WHO risk level Decrease 3, % of participants", "setting": "[1]; Weeks 5-36", "value": "(13.3) %"},
      {"measurement": "WHO risk level Decrease 3, No. of participants", "setting": "[1]; Weeks 5-36", "value": 6},
      {"measurement": "WHO risk level Decrease 1, No. of participants", "setting": "[1]; Weeks 5-36, relative to 12 weeks prior to screening", "value": 32},
      {"measurement": "Abstinence, % of participants", "setting": "[1]; Weeks 33-36", "value": "(24.4) %"},
      {"measurement": "Abstinence, No. of participants", "setting": "[1]; Weeks 33-36", "value": 11},
      {"measurement": "No heavy drinking, % of participants", "setting": "[1]; Weeks 33-36", "value": "(40.0) %"},
      {"measurement": "No heavy drinking, No. of participants", "setting": "[1]; Weeks 33-36", "value": 18},
      {"measurement": "WHO risk level Decrease 1, % of participants", "setting": "[1]; Weeks 33-36", "value": "(64.4) %"},
      {"measurement": "WHO risk level Decrease 1, No. of participants", "setting": "[1]; Weeks 33-36", "value": 29},
      {"measurement": "WHO risk level Decrease 2, % of participants", "setting": "[1]; Weeks 33-36", "value": "(40.0) %"},
      {"measurement": "WHO risk level Decrease 2, No. of participants", "setting": "[1]; Weeks 33-36", "value": 18},
      {"measurement": "WHO risk level Decrease 3, % of participants", "setting": "[1]; Weeks 33-36", "value": "(17.8) %"},
      {"measurement": "WHO risk level Decrease 3, No. of participants", "setting": "[1]; Weeks 33-36", "value": 8},
      {"measurement": "Mean MEQ score", "setting": "[2]; Session 1, psilocybin 25 mg/70 kg or diphenhydramine 50 mg", "value": "0.10 (SD=0.13)"},
      {"measurement": "Mean MEQ score", "setting": "[2]; Session 2, psilocybin 25-40 mg/70 kg or diphenhydramine 50-100 mg", "value": "0.11 (SD=0.16)"},
      {"measurement": "Adverse events reported, number", "setting": "[3]; [5]", "value": 85},
      {"measurement": "Serious adverse events", "setting": "[3]; [5]", "value": "Three"},
      {"measurement": "Headaches, participants affected / treated", "setting": "[3]; [6]", "value": "2/45"},
      {"measurement": "Headaches, percent of participants", "setting": "[3]; [6]", "value": 4.4, "unit": "%"}
    ]}
  ]
}
